For 20 compounds, IC50 results are on record in patent publication US11780843B2, “Compounds active towards nuclear receptors” (NUEVOLUTION A/S, priority 2020, dated 2023).

Read-outs that look alike come from different tables or passages of the source.

The target of assay [1] is T1, RORγ ligand-binding domain (Homo sapiens, UniProt P51449).
T1 construct: Gal4 (galactose-responsive transcription factor); expressed in transfected cells; host or cells: HEK293, transient co-transfection
T1 sequence (P51449 269-508 limits assumed): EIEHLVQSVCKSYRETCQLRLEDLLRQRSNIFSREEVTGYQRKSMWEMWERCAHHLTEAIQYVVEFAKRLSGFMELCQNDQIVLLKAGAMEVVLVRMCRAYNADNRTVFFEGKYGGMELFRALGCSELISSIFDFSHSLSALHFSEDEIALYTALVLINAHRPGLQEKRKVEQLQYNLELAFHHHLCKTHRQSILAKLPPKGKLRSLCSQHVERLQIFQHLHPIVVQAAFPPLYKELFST
The experiment in a line: RORγ Reporter Assay (Gal4). It counts as cell-based. On the procedure:
The HEK293 cell line is co-transfected transiently with two plasmids, one with the RORγ ligand-binding domain fused to galactose-responsive transcription factor (Ga14), and the other with the luciferase reporter gene and Gal binding sites (UAS). This construction allows to determine the RORT activity in a cellular system through the measurement of luminescence.
A suspension of RORγ reporter cells was dispensed into plates and cultured 2 h at 37° C. and 5% CO2. Media formulation consisted in DMEM/F-12 medium (Gibco) supplemented with 10% heat inactivated FBS (Sigma-Aldrich), non-essential aminoacids (Sigma-Aldrich), 2 mM Glutamax (Gibco) and 100 U/mL penicillin (Sigma-Aldrich). Dose-response curves with compounds were prepared in 100% DMSO and further diluted 100-fold in culture medium. Compound solutions were added to the plate containing cells (final DMSO concentration of 0.1%) and incubated for 24 h at 37° C. and 5% CO2. Luciferase detection reagent was added to each well, and relative light units (RLUs) were quantified from each assay well using a plate reading luminometer.
Values of average RLU±S.D. were computed for all treatment sets, followed by the calculations of percent-reduction of RORT activity in response to respective test compound. The following formula was used: activity=100*[1−[[…]] where the theoretical minimum reduction (0% reduction). […] These calculations were performed in excel-fit software using X-204 model curve.

The test system of assay [2] is IL-17A secretion in activated PBMCs. In words: IL-17A secretion in activated PBMCs. Format: cell-based. The settings on record: human PBMCs stimulated with CD3/CD28 Dynabeads for 48 h, absolute IC50. The source says:
Heparin-treated whole blood from healthy human volunteers was supplied from Hospital de Sant Pau (Barcelona) under the approval of the local ethical review board for human studies (Hospital de Sant Pau, Barcelona, Spain). Human peripheral blood mononuclear cells (PBMCs) were isolated from healthy human volunteers by density gradient centrifugation using the Ficoll-Paque (GE Healthcare). PBMCs were suspended in cell culture medium which consisted on RPMI 1640 medium (Sigma-Aldrich) containing 10% heat inactivated fetal bovine serum (Sigma-Aldrich), 2 mM L-Glutamine (Gibco), 20 mM Hepes (Gibco) and 100 U/mL penicillin (Sigma-Aldrich). Cells were seeded in 384-well plate (DiscoverX), at 40,000 cells per well and cultured 2 h at 37° C. and 5% CO2.
Dose-response curves with compounds were prepared using a 5-fold serial dilution (10 concentrations) in 100% DMSO and further diluted 100-fold in culture medium. Compound solutions (5 μL) were added to the plate containing cells (final DMSO concentration of 0.1%) and incubated for 30 min. Then, cells were stimulated with CD3/CD28 Dynabeads (ThermoFisher, at a bead-to-cell ratio of 1:1) for 48 h at 37° C. and 5% CO2.
IL-17A levels in supernatant were determined by immunoassay using hIL17A QBeads (Intellicyt) and by fluorescence analysis in iQue flow cytometer following the manufacturer's instructions. Inhibition of IL-17A secretion was calculated using the following formula: inhibition=100*[1−[(x−mean basal condition)/(mean top condition—mean basal condition)]]. Activated DMSO-treated cells were used as top condition and activated GNE09461 (10 μM)-treated cells as basal condition.

The mark [3] stands for this setting: HEK293 cells, luciferase reporter, 24 h incubation, absolute IC50, read-out: IC50.

On to `NC(=O)C(CO)N1CC[C@@H](Cn2ccc3c(N(Cc4ccc(C(F)(F)F)cc4)C4CC4)ncnc32)[C@H](O)C1` (mixture of isomers) [Example P6-37, rac-2-((3R,4R)-4-((4-(Cyclopropyl(4-(trifluoromethyl)benzyl)amino)-7H-pyrrolo[2,3-d]pyrimidin-7-yl)methyl)-3-hydroxypiperidin-1-yl)-3-hydroxypropanamide], for which the 50% inhibitory concentration (IC50) in assay [1] (setting [3]) was determined as 2 nM; in assay [2] (Homo sapiens, PBMC, 48 h) it was 7 nM.

For the compound `NC(=O)CN1CC[C@@H](Cn2cnc3c(N(Cc4ccc(C(F)(F)F)cc4)C4CC4)ncnc32)[C@H](O)C1` (relative stereo) [P6-26″, rel-2-((3R,4R)-4-((6-(cyclopropyl(4-(trifluoromethyl)benzyl)amino)-9H-purin-9-yl)methyl)-3-hydroxypiperidin-1-yl)acetamide], the IC50 in assay [1] (setting [3]) was 5.1 nM; in assay [2] (Homo sapiens, PBMC, 48 h) it was 21 nM.

Take `CCN(Cc1ccc(C(F)(F)F)cn1)c1ncnc2c1ccn2C[C@@H]1CCN(CC(N)=O)C[C@H]1O` (relative stereo) [P6-27″, rel-2-((3R,4R)-4-((4-(ethyl((5-(trifluoromethyl)pyridin-2-yl)methyl)amino)-7H-pyrrolo[2,3-d]pyrimidin-7-yl)methyl)-3-hydroxypiperidin-1-yl)acetamide]: the IC50 in assay [1] (setting [3]) was determined as 12 nM; in assay [2] (Homo sapiens, PBMC, 48 h) it was 70 nM.

For the compound `CCN(Cc1ccc(C(F)(F)F)cn1)c1ncnc2c1c(F)cn2C[C@@H]1CCN(CC(N)=O)C[C@H]1O` (relative stereo) [P6-28″, rel-2-((3R,4R)-4-((4-(ethyl((5-(trifluoromethyl)pyridin-2-yl)methyl)amino)-5-fluoro-7H-pyrrolo[2,3-d]pyrimidin-7-yl)methyl)-3-hydroxypiperidin-1-yl)acetamide], the IC50 stood at 8.6 nM in assay [1] (setting [3]) and 53 nM in assay [2] (Homo sapiens, PBMC, 48 h).

For `CCN(Cc1ccc(-n2cccn2)cc1)c1ncnc2c1ccn2C[C@@H]1CCN(CC(N)=O)C[C@H]1O` (relative stereo) [P6-30″, rel-2-((3R,4R)-4-((4-((4-(1H-pyrazol-1-yl)benzyl)(ethyl)amino)-7H-pyrrolo[2,3-d]pyrimidin-7-yl)methyl)-3-hydroxypiperidin-1-yl)acetamide], the IC50 in assay [1] (setting [3]) amounted to 6.5 nM; in assay [2] (Homo sapiens, PBMC, 48 h), 100 nM.

With `CCN(Cc1ccc(C(F)(F)F)c(F)c1)c1ncnc2c1ccn2C[C@@H]1CCN(CC(N)=O)C[C@H]1O` (relative stereo) [P6-31″, rel-2-((3R,4R)-4-((4-(ethyl(3-fluoro-4-(trifluoromethyl)benzyl)amino)-7H-pyrrolo[2,3-d]pyrimidin-7-yl)methyl)-3-hydroxypiperidin-1-yl)acetamide], the IC50 in assay [1] (setting [3]) came to 1.9 nM; in assay [2] (Homo sapiens, PBMC, 48 h), 6 nM.

`CCN(Cc1ccc(C(F)(F)F)cc1F)c1ncnc2c1ccn2C[C@@H]1CCN(CC(N)=O)C[C@H]1O` (relative stereo) [P6-32″, rel-2-((3R,4R)-4-((4-(ethyl(2-fluoro-4-(trifluoromethyl)benzyl)amino)-7H-pyrrolo[2,3-d]pyrimidin-7-yl)methyl)-3-hydroxypiperidin-1-yl)acetamide]: the IC50 in assay [1] (setting [3]) was 2 nM; in assay [2] (Homo sapiens, PBMC, 48 h) it was 8.4 nM.

As for `NC(=O)CN1CC[C@@H](Cn2ccc3c(N(Cc4ccc(-n5cccn5)cc4)C4CC4)ncnc32)[C@H](O)C1` (relative stereo) [P6-33″, rel-2-((3R,4R)-4-((4-((4-(1H-pyrazol-1-yl)benzyl)(cyclopropyl)amino)-7H-pyrrolo[2,3-d]pyrimidin-7-yl)methyl)-3-hydroxypiperidin-1-yl)acetamide], the IC50 was 8.5 nM in assay [1] (setting [3]) and 9.9 nM in assay [2] (Homo sapiens, PBMC, 48 h).

As to `CCN(Cc1ccc(-n2cccn2)cc1)c1ncnc2c1ccn2C[C@@]1(O)CCN(CC(N)=O)C[C@@H]1O` (relative stereo) [R5-1″, rel-2-((3R,4R)-4-((4-((4-(1H-pyrazol-1-yl)benzyl)(ethyl)amino)-7H-pyrrolo[2,3-d]pyrimidin-7-yl)methyl)-3,4-dihydroxypiperidin-1-yl)acetamide], the IC50 came to 13 nM in assay [1] (setting [3]) and 80 nM in assay [2] (Homo sapiens, PBMC, 48 h).

In the case of `NC(=O)CN1CC[C@](O)(Cn2ccc3c(N(Cc4ccc(-n5cccn5)cc4)C4CC4)ncnc32)[C@@H](O)C1` (relative stereo) [R5-2″, Rel-2-((3R,4R)-4-((4-((4-(1H-pyrazol-1-yl)benzyl)(cyclopropyl)amino)-7H-pyrrolo[2,3-d]pyrimidin-7-yl)methyl)-3,4-dihydroxypiperidin-1-yl)acetamide], the IC50 in assay [1] (setting [3]) stood at 8.1 nM; in assay [2] (Homo sapiens, PBMC, 48 h) it was 7.4 nM.

In the case of `Cn1cc(-c2ccc(CN(c3ncnc4c3ccn4C[C@@]3(O)CCN(CC(N)=O)C[C@@H]3O)C3CC3)c(F)c2)cn1` (relative stereo) [R5-3″, rel-2-((3R,4R)-4-((4-(cyclopropyl(2-fluoro-4-(1-methyl-1H-pyrazol-4-yl)benzyl)amino)-7H-pyrrolo[2,3-d]pyrimidin-7-yl)methyl)-3,4-dihydroxypiperidin-1-yl)acetamide], the IC50 in assay [1] (setting [3]) turned out to be 4 nM; in assay [2] (Homo sapiens, PBMC, 48 h) it was 11 nM.

Consider `NC(=O)CN1CC[C@](O)(Cn2ccc3c(N(Cc4ccc(-n5cccn5)cc4F)C4CC4)ncnc32)[C@@H](O)C1` (relative stereo) [R5-4″, rel-2-((3R,4R)-4-((4-(cyclopropyl(2-fluoro-4-(1H-pyrazol-1-yl)benzyl)amino)-7H-pyrrolo[2,3-d]pyrimidin-7-yl)methyl)-3,4-dihydroxypiperidin-1-yl)acetamide], for which the IC50 in assay [1] (setting [3]) is 4.3 nM; in assay [2] (Homo sapiens, PBMC, 48 h) it was 22 nM.

Consider `NC(=O)CN1CC[C@](O)(Cn2ccc3c(N(Cc4ccc(C(F)(F)F)cc4)C4CC4)ncnc32)[C@@H](O)C1` (single isomer, unassigned) [Example L5-1-1-2], for which the IC50 in assay [1] (setting [3]) was 2 nM; in assay [2], 2.3 nM.

`CCN(Cc1ccc(C(F)(F)F)cc1)c1ncnc2c1ccn2C[C@@]1(O)CCN(CC(N)=O)C[C@@H]1O` (single isomer, unassigned) [Example L5-2-1-1]: the results for the IC50 in assay [1] (setting [3]) and in assay [2] were 1.4 nM and 2.7 nM, respectively.

Regarding `CCN(Cc1ccc(C(F)(F)F)cc1)c1ncnc2c1ccn2C[C@@]1(O)CCN(CC(N)=O)C[C@@H]1O` (single isomer, unassigned) [Example L5-2-1-2], the IC50 in assay [1] (setting [3]) was found to be 2 nM; in assay [2] (Homo sapiens, PBMC, 48 h), 3.1 nM.

With `CCN(Cc1ccc(C(F)(F)F)cc1F)c1ncnc2c1ccn2C[C@@]1(O)CCN(CC(N)=O)C[C@@H]1O` (single isomer, unassigned) [Example L5-3-1-1], the IC50 came out at 3 nM in assay [1] (setting [3]) and 9.8 nM in assay [2] (Homo sapiens, PBMC, 48 h).

`CCN(Cc1ccc(C(F)(F)F)cc1F)c1ncnc2c1ccn2C[C@@]1(O)CCN(CC(N)=O)C[C@@H]1O` (single isomer, unassigned) [Example L5-3-1-2]: the IC50 is 4.4 nM in assay [1] (setting [3]) and 10 nM in assay [2].

`NC(=O)CN1CC[C@@H](Cn2ccc3c(N(Cc4ccc(C(F)(F)F)cc4)C4CC4)ncnc32)[C@H](O)C1` (single isomer, unassigned) [Example P6-13-1]: the IC50 in assay [1] (setting [3]) is 1.6 nM; in assay [1] (stated as a bound only (Tables 5 a, 6, 7), read-out: Gal4 assay IC50) it was below 100 nM; in assay [2] (Homo sapiens, PBMC, 48 h), 1.1 nM.

As to `NC(=O)CN1CC[C@@H](Cn2ccc3c(N(Cc4ccc(C(F)(F)F)cc4)C4CC4)ncnc32)[C@H](O)C1` (single isomer, unassigned) [Example P6-13-2], the IC50 in assay [1] (setting [3]) stood at 2 nM; in assay [2] it was 1.3 nM.

Turning to `NC(=O)CN1CC[C@@H](Cn2cc(F)c3c(N(Cc4ccc(C(F)(F)F)cc4)C4CC4)ncnc32)[C@H](O)C1` (single isomer, unassigned) [Example P6-14-1], the IC50 in assay [1] (setting [3]) turned out to be 3.8 nM; in assay [2], 18 nM.
